The subject of data set [1] is Carrageenan pleural effusion. As to the kind of experiment: Evans Blue-Carrageenan Pleural Effusion Test. It counts as in vivo, rats. Conditions: rat, aspirin 150 mg/kg oral, P <0.05. From the text:
The effect of metaxalone (Compound 15) on the anti-inflammatory activity of aspirin in rats was studied using a modification of the Evans Blue-Carrageenan Pleural Effusion Test [Sancilio, L. F., Journal of Pharmacology and Experimental Therapeutics 168, 199-204 (1969)].

In data set [2] the test system is aspirin-induced gastric bleeding. It counts as in vivo, cats. Conditions: cat, 30 min, aspirin 10 mg topical, no glyceryl guaiacolate. As for the experimental part:
Fasted cats weighing […] were anesthetized with phenobarbital sodium (130 mg/kg, i.p.). Glyceryl guaiacolate was administered intravenously for a total of 2 hrs. beginning 60 min. prior to the topical application of the aspirin (10 mg) to the gastric mucosa. Throughout the experiment, artificial gastric juice (USP, pH 1.3) bathed the mucosa by means of the specially designed chamber. The number of bleeding sites occurring at various exposure sites were recorded at 15, 30 and 60 min. Glyceryl guaiacolate was given at doses of 10 and 30 mg/kg/hr via a previously cannulated jugular vein using an infusion pump (Harvard Apparatus Co., Model 1202). […] An important point is that with 30 mg/kg/hr, i.v., of glyercyl guaiacolate there was no bleeding at 30 min. compared with an average of 14 bleeding sites when no glyceryl guaiacolate was adminsitered. A total of 23 cats were used and there was a minimum of 24 aspirin exposure sites for each dose of glyceryl guaiacolate.

Here are results for one molecule from patent US4036957A, “Phenoxy compounds in combinations to suppress gastric bleeding in aspirin therapy” (priority 1975, dated 1977).

`CC(=O)Oc1ccccc1C(=O)O` [Aspirin, aspirin]: the “Pleural Fluid” value in data set [1] (± S.D.) is 4.2 ± 0.28 mL. In data set [1], the “% Decrease in Pleural Fluid vs Control” value was found to be 38%. In addition, the “average number of bleeding sites” value in data set [2] came out at 14 bleeding sites.
